Assay results from the kinase profiling compilation of Christmann-Franck et al. (2016).
One block for each compound: values may come before it.

What was measured:
Experiment in all cases: radiometric filter-binding kinase assay
MYLK (human) = MYLK (human) (UniProt Q15746)
NEK7 (human) = NEK7 (human) (UniProt Q8TDX7)
AURKC (human) = AURKC (human) (UniProt Q9UQB9)
CAMKK1 (human) = CAMKK1 (human) (UniProt Q8N5S9)
WNK1 (human) = WNK1 (human) (UniProt Q9H4A3)
CDK9 CCNT1 (human) = CDK9 CCNT1 (human) (UniProt P50750+O60563)
DDR2 (human) = DDR2 (human) (UniProt Q16832)
MAPK7 (human) = MAPK7 (human) (UniProt Q13164)
MAP4K3 (human) = MAP4K3 (human) (UniProt Q8IVH8)
TESK1 (human) = TESK1 (human) (UniProt Q15569)
SIK3 (human) = SIK3 (human) (UniProt Q9Y2K2)
MAP4K5 (human) = MAP4K5 (human) (UniProt Q9Y4K4)
CSNK1G2 (human) = CSNK1G2 (human) (UniProt P78368)
TTBK2 (human) = TTBK2 (human) (UniProt Q6IQ55)
ULK2 (human) = ULK2 (human) (UniProt Q8IYT8)
STK33 (human) = STK33 (human) (UniProt Q9BYT3)
EIF2AK3 (human) = EIF2AK3 (human) (UniProt Q9NZJ5)
TSSK1B (human) = TSSK1B (human) (UniProt Q9BXA7)
ABL1 (human) = ABL1 (human) (UniProt P00519)
PTK6 (human) = PTK6 (human) (UniProt Q13882)
PRKCG (human) = PRKCG (human) (UniProt P05129)
STK24 (human) = STK24 (human) (UniProt Q9Y6E0)
SIK2 (human) = SIK2 (human) (UniProt Q9H0K1)
TTBK1 (human) = TTBK1 (human) (UniProt Q5TCY1)
TLK1 (human) = TLK1 (human) (UniProt Q9UKI8)
STK16 (human) = STK16 (human) (UniProt O75716)
Chain of STK16 (human) (O75716 whole entry, looked up): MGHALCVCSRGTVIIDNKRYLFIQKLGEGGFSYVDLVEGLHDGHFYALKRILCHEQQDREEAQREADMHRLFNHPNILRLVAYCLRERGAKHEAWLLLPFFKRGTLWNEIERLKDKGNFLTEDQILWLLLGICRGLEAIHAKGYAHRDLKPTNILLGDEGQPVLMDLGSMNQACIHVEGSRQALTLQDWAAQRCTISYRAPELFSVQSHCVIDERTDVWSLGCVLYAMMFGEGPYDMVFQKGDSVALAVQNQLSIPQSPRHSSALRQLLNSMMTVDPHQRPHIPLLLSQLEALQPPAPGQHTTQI

ZAP70 (human) = ZAP70 (human) (UniProt P43403)
PDGFRA (human) = PDGFRA (human) (UniProt P16234)
ULK1 (human) = ULK1 (human) (UniProt O75385)
IRAK1 (human) = IRAK1 (human) (UniProt P51617)
[1] = tested on: TGFBR1 (human), P36897 [T204D]
[2] = tested on: OXSR1 (human), O95747 [T185E]
Chain of OXSR1 (human), O95747 [T185E] (O95747 whole entry T185E, looked up): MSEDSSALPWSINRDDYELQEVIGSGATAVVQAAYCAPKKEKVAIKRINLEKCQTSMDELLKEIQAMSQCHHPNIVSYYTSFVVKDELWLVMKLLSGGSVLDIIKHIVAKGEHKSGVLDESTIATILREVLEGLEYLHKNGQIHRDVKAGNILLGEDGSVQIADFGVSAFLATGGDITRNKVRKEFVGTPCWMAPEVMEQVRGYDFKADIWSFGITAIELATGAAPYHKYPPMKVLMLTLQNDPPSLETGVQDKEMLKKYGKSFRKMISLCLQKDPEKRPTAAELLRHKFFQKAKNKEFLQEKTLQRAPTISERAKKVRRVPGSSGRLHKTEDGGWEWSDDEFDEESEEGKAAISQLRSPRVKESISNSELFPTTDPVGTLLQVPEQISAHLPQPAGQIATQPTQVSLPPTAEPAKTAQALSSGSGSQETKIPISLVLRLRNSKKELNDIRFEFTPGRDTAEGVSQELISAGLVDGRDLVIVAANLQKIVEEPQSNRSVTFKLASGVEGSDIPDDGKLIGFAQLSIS

TEK (human) = TEK (human) (UniProt Q02763)
[3] = target: PRKAA1 PRKAB2 PRKAG1 (human) (UniProt O43741+Q13131+P54619)
Chain of PRKAA1 PRKAB2 PRKAG1 (human) (O43741 whole entry, looked up): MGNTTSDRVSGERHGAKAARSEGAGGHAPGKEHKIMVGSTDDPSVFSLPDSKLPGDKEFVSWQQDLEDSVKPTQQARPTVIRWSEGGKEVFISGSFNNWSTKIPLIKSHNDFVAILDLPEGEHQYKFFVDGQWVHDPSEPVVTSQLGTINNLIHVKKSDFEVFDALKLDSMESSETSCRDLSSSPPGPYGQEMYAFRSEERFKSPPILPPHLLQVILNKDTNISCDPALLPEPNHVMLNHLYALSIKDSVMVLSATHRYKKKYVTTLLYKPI
Chain of PRKAA1 PRKAB2 PRKAG1 (human) (P54619 whole entry, looked up): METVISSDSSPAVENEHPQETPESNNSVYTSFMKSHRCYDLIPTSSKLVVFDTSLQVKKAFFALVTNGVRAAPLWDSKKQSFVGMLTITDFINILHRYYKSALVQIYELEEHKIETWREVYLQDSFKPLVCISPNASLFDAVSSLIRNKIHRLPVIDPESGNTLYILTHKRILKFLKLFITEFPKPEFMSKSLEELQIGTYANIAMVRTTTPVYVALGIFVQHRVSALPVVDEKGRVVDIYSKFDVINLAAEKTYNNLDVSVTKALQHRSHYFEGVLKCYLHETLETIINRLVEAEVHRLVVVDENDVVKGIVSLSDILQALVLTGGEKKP
Chain of PRKAA1 PRKAB2 PRKAG1 (human) (Q13131 whole entry, looked up): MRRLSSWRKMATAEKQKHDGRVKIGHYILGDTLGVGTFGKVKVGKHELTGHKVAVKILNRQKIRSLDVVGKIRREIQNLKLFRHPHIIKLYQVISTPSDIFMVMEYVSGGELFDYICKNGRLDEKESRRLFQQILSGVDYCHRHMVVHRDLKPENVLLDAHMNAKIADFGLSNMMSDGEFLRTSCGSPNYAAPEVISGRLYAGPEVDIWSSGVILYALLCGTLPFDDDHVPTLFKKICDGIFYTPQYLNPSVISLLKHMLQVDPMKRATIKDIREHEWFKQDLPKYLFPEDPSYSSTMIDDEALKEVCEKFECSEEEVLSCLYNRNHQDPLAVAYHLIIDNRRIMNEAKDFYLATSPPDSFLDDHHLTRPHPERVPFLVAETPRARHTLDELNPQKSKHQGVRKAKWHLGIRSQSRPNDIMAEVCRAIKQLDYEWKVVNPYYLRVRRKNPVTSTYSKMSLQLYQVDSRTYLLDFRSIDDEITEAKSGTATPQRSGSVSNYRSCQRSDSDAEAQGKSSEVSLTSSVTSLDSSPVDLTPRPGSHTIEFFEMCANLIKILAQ

Chain of AURKC (human) (Q9UQB9 whole entry, looked up): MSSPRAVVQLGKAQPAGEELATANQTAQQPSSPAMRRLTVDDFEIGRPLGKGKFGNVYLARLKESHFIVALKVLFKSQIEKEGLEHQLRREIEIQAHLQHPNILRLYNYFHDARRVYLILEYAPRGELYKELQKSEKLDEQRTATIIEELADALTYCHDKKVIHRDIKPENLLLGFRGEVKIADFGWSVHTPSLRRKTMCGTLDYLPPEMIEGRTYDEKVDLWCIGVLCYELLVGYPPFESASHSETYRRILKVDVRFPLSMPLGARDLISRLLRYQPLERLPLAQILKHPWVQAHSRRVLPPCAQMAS
Chain of MYLK (human) (Q15746 whole entry, looked up): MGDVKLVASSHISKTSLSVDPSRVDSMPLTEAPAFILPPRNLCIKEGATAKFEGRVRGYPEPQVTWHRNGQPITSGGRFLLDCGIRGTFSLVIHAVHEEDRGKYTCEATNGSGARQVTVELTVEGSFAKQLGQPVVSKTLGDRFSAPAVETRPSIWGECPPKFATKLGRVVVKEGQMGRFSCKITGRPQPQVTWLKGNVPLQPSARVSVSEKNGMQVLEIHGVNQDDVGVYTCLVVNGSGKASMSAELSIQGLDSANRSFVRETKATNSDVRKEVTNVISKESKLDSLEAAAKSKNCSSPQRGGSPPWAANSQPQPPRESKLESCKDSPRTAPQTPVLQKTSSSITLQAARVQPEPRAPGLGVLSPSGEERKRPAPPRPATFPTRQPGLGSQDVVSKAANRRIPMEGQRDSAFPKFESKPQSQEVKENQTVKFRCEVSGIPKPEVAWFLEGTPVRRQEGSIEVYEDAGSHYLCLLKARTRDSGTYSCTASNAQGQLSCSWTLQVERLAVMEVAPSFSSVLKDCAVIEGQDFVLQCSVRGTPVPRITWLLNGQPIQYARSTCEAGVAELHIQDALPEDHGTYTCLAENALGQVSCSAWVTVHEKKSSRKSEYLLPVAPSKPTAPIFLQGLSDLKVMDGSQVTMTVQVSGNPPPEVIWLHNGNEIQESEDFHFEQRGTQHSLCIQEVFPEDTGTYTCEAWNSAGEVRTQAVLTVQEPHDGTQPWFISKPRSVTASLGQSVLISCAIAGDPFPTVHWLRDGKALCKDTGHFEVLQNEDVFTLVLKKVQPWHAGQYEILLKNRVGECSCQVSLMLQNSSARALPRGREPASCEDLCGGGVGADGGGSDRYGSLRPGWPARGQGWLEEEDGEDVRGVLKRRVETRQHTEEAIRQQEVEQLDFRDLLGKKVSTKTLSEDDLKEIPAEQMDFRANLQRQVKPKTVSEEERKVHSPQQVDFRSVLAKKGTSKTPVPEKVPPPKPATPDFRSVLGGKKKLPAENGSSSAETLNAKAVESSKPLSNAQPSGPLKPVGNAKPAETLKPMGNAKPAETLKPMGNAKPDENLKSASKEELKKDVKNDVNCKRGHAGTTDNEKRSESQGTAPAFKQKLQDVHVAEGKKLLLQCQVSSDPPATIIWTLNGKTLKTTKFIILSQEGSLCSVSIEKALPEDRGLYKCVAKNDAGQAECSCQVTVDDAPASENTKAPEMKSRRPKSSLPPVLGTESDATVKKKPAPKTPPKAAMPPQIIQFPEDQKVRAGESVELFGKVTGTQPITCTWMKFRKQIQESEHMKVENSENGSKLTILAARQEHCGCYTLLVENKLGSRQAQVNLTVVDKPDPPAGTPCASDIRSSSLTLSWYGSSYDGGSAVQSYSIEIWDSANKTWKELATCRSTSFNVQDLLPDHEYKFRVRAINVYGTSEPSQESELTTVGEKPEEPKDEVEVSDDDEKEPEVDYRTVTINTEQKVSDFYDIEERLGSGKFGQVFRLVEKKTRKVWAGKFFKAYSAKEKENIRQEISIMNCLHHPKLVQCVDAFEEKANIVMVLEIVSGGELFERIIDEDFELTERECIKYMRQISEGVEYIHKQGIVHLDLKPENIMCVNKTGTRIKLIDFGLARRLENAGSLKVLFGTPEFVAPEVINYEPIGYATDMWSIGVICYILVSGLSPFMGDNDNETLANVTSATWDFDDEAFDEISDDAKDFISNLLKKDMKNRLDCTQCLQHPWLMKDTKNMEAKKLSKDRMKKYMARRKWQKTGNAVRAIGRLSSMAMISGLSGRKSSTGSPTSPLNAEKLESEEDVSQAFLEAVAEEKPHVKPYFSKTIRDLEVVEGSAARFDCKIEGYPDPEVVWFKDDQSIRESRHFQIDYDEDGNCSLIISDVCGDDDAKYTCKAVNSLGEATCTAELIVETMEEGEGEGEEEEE
Chain of NEK7 (human) (Q8TDX7 whole entry, looked up): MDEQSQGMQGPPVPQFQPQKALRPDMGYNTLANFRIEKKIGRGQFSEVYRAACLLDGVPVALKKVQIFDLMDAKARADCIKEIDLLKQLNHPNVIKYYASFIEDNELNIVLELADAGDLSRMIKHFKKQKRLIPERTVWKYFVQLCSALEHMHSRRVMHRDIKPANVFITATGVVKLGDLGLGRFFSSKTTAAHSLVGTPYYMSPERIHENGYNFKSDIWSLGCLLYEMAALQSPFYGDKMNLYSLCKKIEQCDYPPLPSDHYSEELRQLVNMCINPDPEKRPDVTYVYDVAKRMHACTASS
Chain of CAMKK1 (human) (Q8N5S9 whole entry, looked up): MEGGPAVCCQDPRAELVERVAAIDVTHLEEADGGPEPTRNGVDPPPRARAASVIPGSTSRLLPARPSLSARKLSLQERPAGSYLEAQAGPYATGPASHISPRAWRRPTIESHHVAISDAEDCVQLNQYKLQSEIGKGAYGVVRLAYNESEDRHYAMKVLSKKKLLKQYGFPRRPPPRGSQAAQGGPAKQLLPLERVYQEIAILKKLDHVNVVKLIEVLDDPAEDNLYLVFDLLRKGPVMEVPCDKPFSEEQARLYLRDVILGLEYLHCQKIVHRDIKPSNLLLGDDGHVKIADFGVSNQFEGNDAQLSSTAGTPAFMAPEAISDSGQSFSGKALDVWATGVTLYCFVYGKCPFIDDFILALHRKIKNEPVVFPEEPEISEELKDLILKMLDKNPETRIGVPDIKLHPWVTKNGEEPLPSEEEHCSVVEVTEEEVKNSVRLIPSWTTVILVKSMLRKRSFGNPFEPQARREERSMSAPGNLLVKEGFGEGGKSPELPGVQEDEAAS

residual activity (MYLK (human); compound 1.0 µM): 93% | residual activity (MYLK (human); compound 10.0 µM): 87% | residual activity (NEK7 (human); compound 1.0 µM): 88% | residual activity (NEK7 (human); compound 10.0 µM): 91% | residual activity (AURKC (human); compound 1.0 µM): 92% | residual activity (AURKC (human); compound 10.0 µM): 117% | residual activity (CAMKK1 (human); compound 1.0 µM): 111% | residual activity (CAMKK1 (human); compound 10.0 µM): 114%
Compound: Cc1cccc(Nc2nn(C)c3ncnc(N)c23)c1

residual activity (MYLK (human); compound 1.0 µM): 98% | residual activity (MYLK (human); compound 50.0 µM): 96% | residual activity (NEK7 (human); compound 1.0 µM): 99%
Compound: CCCC(CCC)C(=O)O

residual activity (MYLK (human); compound 1.0 µM): 78% | residual activity (MYLK (human); compound 10.0 µM): 63% | residual activity (MYLK (human); compound 50.0 µM): 15% | residual activity (NEK7 (human); compound 1.0 µM): 94% | residual activity (NEK7 (human); compound 50.0 µM): 95% | residual activity (AURKC (human); compound 1.0 µM): 75% | residual activity (AURKC (human); compound 50.0 µM): 32% | residual activity (CAMKK1 (human); compound 1.0 µM): 98% | residual activity (CAMKK1 (human); compound 50.0 µM): 30%
Compound: Oc1ccc(/C=C/c2cc(O)cc(O)c2)cc1

residual activity (MYLK (human); compound 1.0 µM): 94% | residual activity (MYLK (human); compound 10.0 µM): 107% | residual activity (NEK7 (human); compound 1.0 µM): 94% | residual activity (NEK7 (human); compound 10.0 µM): 99% | residual activity (AURKC (human); compound 1.0 µM): 125% | residual activity (AURKC (human); compound 10.0 µM): 117% | residual activity (CAMKK1 (human); compound 1.0 µM): 89% | residual activity (CAMKK1 (human); compound 10.0 µM): 112%
Compound: Cn1nc(Nc2ccc(F)cc2)c2c(N)ncnc21

residual activity (WNK1 (human); compound 1.0 µM): 103% | residual activity (WNK1 (human); compound 10.0 µM): 104% | residual activity (CDK9 CCNT1 (human); compound 1.0 µM): 96% | residual activity (CDK9 CCNT1 (human); compound 10.0 µM): 90% | residual activity (DDR2 (human); compound 1.0 µM): 97% | residual activity (DDR2 (human); compound 10.0 µM): 98% | residual activity (MAPK7 (human); compound 1.0 µM): 65% | residual activity (MAPK7 (human); compound 10.0 µM): 32% | residual activity (MAP4K3 (human); compound 1.0 µM): 69% | residual activity (MAP4K3 (human); compound 10.0 µM): 21% | residual activity (TESK1 (human); compound 1.0 µM): 104% | residual activity (TESK1 (human); compound 10.0 µM): 98% | residual activity (SIK3 (human); compound 1.0 µM): 110% | residual activity (SIK3 (human); compound 10.0 µM): 88% | residual activity (MAP4K5 (human); compound 1.0 µM): 109% | residual activity (MAP4K5 (human); compound 10.0 µM): 90% | residual activity (MYLK (human); compound 1.0 µM): 31% | residual activity (MYLK (human); compound 10.0 µM): 6% | residual activity (CSNK1G2 (human); compound 1.0 µM): 91% | residual activity (CSNK1G2 (human); compound 10.0 µM): 90% | residual activity (TTBK2 (human); compound 1.0 µM): 95% | residual activity (TTBK2 (human); compound 10.0 µM): 74% | residual activity (ULK2 (human); compound 1.0 µM): 92% | residual activity (ULK2 (human); compound 10.0 µM): 61% | residual activity (STK33 (human); compound 1.0 µM): 39% | residual activity (STK33 (human); compound 10.0 µM): 22% | residual activity (EIF2AK3 (human); compound 1.0 µM): 99% | residual activity (EIF2AK3 (human); compound 10.0 µM): 80% | residual activity (TSSK1B (human); compound 1.0 µM): 12% | residual activity (TSSK1B (human); compound 10.0 µM): 3% | residual activity (ABL1 (human); compound 1.0 µM): 102% | residual activity (ABL1 (human); compound 10.0 µM): 106% | residual activity (PTK6 (human); compound 1.0 µM): 57% | residual activity (PTK6 (human); compound 10.0 µM): 15% | residual activity (PRKCG (human); compound 1.0 µM): 108% | residual activity (PRKCG (human); compound 10.0 µM): 95% | residual activity (STK24 (human); compound 1.0 µM): 97% | residual activity (STK24 (human); compound 10.0 µM): 81% | residual activity (SIK2 (human); compound 1.0 µM): 66% | residual activity (SIK2 (human); compound 10.0 µM): 21% | residual activity (TTBK1 (human); compound 1.0 µM): 100% | residual activity (TTBK1 (human); compound 10.0 µM): 84% | residual activity (TLK1 (human); compound 1.0 µM): 104% | residual activity (TLK1 (human); compound 10.0 µM): 101% | residual activity (STK16 (human); compound 1.0 µM): 97% | residual activity (STK16 (human); compound 10.0 µM): 96% | residual activity (ZAP70 (human); compound 1.0 µM): 102% | residual activity (ZAP70 (human); compound 10.0 µM): 79% | residual activity (PDGFRA (human); compound 1.0 µM): 91% | residual activity (PDGFRA (human); compound 10.0 µM): 61% | residual activity (ULK1 (human); compound 1.0 µM): 98% | residual activity (ULK1 (human); compound 10.0 µM): 47% | residual activity (IRAK1 (human); compound 1.0 µM): 100% | residual activity (IRAK1 (human); compound 10.0 µM): 93% | residual activity ([1]; compound 1.0 µM): 110% | residual activity ([1]; compound 10.0 µM): 102% | residual activity ([2]; compound 1.0 µM): 99% | residual activity ([2]; compound 10.0 µM): 54% | residual activity (TEK (human); compound 1.0 µM): 100% | residual activity (TEK (human); compound 10.0 µM): 85% | residual activity ([3]; compound 1.0 µM): 71% | residual activity ([3]; compound 10.0 µM): 29%
Compound: CCNc1nc(Nc2cc(F)c(C(=O)N3CCOCC3)cc2OC)ncc1C(F)(F)F
